We go through twelve compounds from patent publication US10865191B2, “Heterocyclic compounds useful as modulators of TNF alpha” (BRISTOL-MYERS SQUIBB COMPANY, priority 2015, dated 2020).

For the test, the target named is TNFα (Homo sapiens, UniProt P01375). The test can be described thus: TNF induced HEK-Blue assay (NF-kB-driven secreted alkaline phosphatase reporter). It is filed as cell-based. Particulars: TNFα 0.5 ng/mL, HEK-Blue-CD40L cells, 18 h; read-out: TNF induced HEK-Blue assay IC50 value. The method in brief: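 HEK-Blue-CD40L cells (NF-kB-driven SEAP reporter), 20,000/well, added after 30 min pre-incubation of compound (0.004–25 μM final) with TNFα 0.5 ng/mL final at 37 °C; 18 h incubation. SEAP read with QUANTI-Blue at 620 nm; IC50 from 4-parameter logistic fit, normalized to unstimulated and stimulated DMSO controls.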
TNFα, sequence (P01375 77-233 limits assumed): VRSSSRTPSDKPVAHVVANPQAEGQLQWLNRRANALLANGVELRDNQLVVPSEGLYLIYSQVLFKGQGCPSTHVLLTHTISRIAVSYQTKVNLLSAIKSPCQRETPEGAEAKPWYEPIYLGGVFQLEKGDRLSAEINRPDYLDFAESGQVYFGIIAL
A word on the IC50: it is the concentration needed to halve the response being measured. Consider `CCOC(=O)C1CCN(c2ncc(-c3cc4c(NC(C)c5ccccc5F)c(Cl)cnc4cc3F)cn2)CC1` (single isomer, unassigned) [Example 243, ethyl-1-(5-(3-chloro-7-fluoro-4-((1-(2-fluorophenyl)ethyl)amino)quinolin-6-yl)pyrimidin-2-yl)piperidine-4-carboxylate], for which the IC50 was less than 1 µM.
For `CCOC(=O)c1nc2ccc(-c3ccc(C#N)nc3)cc2c(Nc2cc(C)ccc2C)c1Cl` [Example 5, ethyl 3-chloro-6-(6-cyanopyridin-3-yl)-4-((2,5-dimethylphenyl)amino)quinoline-2-carboxylate], the IC50 fell in the range of 1 to 10 µM.
For `C[C@@H](Nc1c(Cl)cnc2ccc(-c3cnc(C(C)(C)O)nc3)cc12)c1cc(C(O)CO)ccc1F` (single isomer, unassigned) [Example 400] the value was less than 1 µM; for `C[C@@H](Nc1c(Cl)cnc2ccc(-c3cnc(N4CCN(CC(=O)NS(C)(=O)=O)CC4)nc3)cc12)c1ccccc1F` [Example 91, (R)-2-(4-(5-(3-chloro-4-((1-(2-fluorophenyl)ethyl)amino)quinolin-6-yl)pyrimidin-2-yl)piperazin-1-yl)-N-(methylsulfonyl)acetamide], less than 1 µM.
Consider `COC(=O)[C@H](CNC(C)=O)N1CCN(c2ncc(-c3ccc4ncc(Cl)c(N[C@H](C)c5ccccc5F)c4c3)cn2)CC1` [Example 109, methyl (S)-3-acetamido-2-(4-(5-(3-chloro-4-(((R)-1-(2-fluorophenyl)ethyl)amino)quinolin-6-yl)pyrimidin-2-yl)piperazin-1-yl)propanoate], for which the IC50 lay within 1 to 10 µM.
Then `Cc1nc2cc(F)c(-c3cnc(C(C)(C)O)nc3)cc2c(N[C@H](C)c2cc(C#N)ccc2F)c1Cl` [Example 382, (R)-3-(1-((3-chloro-7-fluoro-6-(2-(2-hydroxypropan-2-yl)pyrimidin-5-yl)-2-methylquinolin-4-yl)amino)ethyl)-4-fluorobenzonitrile], with less than 1 µM; and `CC(Nc1c(Cl)cnc2cc(F)c(-c3ccc(C(O)C4CC4)cc3)cc12)c1ccccc1F` (stereo not drawn) [Example 260, (4-(3-chloro-7-fluoro-4-((1-(2-fluorophenyl)ethyl)amino)quinolin-6-yl)phenyl)(cyclopropyl)methanol], with less than 1 µM.
Take `Cc1ccc(C)c(Nc2c(Cl)c(C(=O)Nc3ccccc3)nc3ccc(-c4ccc(C#N)nc4)cc23)c1` [Example 35, 3-chloro-6-(6-cyanopyridin-3-yl)-4-((2,5-dimethylphenyl)amino)-N-phenylquinoline-2-carboxamide]: the IC50 fell in the range of 1 to 10 µM.
For `CCn1cc(-c2ccc(F)c([C@@H](C)Nc3c(Cl)cnc4ccccc34)c2)cn1` [Example 473, (R)-3-chloro-N-(1-(5-(1-ethyl-1H-pyrazol-4-yl)-2-fluorophenyl)ethyl)quinolin-4-amine] the value was less than 1 µM.
For the compound `CC(C)(O)c1ncc(-c2ccc3ncc(Cl)c(NC(c4ccccc4F)C(F)(F)F)c3c2)cn1` (racemic) [Example 164, 2-(5-(3-chloro-4-((2,2,2-trifluoro-1-(2-fluorophenyl)ethyl)amino)quinolin-6-yl)pyrimidin-2-yl)propan-2-ol], the IC50 lay within 1 to 10 µM.
Then `C=Cc1ccc(F)c([C@H](Nc2c(Cl)c(C)nc3cc(F)c(-c4cnc(C(C)(C)O)nc4)nc23)C(F)F)c1` [Example 494, (S)-2-(5-(7-chloro-8-((2,2-difluoro-1-(2-fluoro-5-vinylphenyl)ethyl)amino)-3-fluoro-6-methyl-1,5-naphthyridin-2-yl)pyrimidin-2-yl) propan-2-ol], with less than 1 µM; and `C[C@@H](Nc1c(Cl)cnc2ccc(-c3cnc(C(C)(C)O)nc3)cc12)c1cc(-c2cnccn2)ccc1F` [Example 341, (R)-2-(5-(3-chloro-4-((1-(2-fluoro-5-(pyrazin-2-yl)phenyl)ethyl)amino)quinolin-6-yl)pyrimidin-2-yl)propan-2-ol], with less than 1 µM.
